Measured values taken from US7015221B2, “2,4-disubstituted triazine derivatives” (Janssen Pharmaceutica, N.V., priority 1998, dated 2006).

Columns and labels:
[1] = Cytotoxicity in mock-infected MT-4 cells (MTT); assay type: cell-based; conditions: human, concentration reducing absorbance of mock-infected MT-4 control by 50%

Compound | CC50 [1] | melting point
Cc1cc(C)c(Oc2ncnc(Nc3ccc(C#N)cc3)n2)c(C)c1 [Compound 2, 4-[[4-(2,4,6-trimethylphenoxy)-1,3,5-triazin-2-yl]amino]benzonitrile] | > 100 µM | –
Cc1cc(C)c(Sc2ncnc(Nc3ccc(C#N)cc3)n2)c(C)c1 [Compound 4, 4-[[4-[(2,4,6-trimethylphenyl)thio]-1,3,5-triazin-2-yl]amino]benzonitrile] | > 100 µM | –
CC(C)c1cc(Br)c(Nc2ncnc(Nc3ccc(C#N)cc3)n2)c(Br)c1 [Compound 8, 4-[[4-[[2,6-dibromo-4-(1-methylethyl)phenyl]amino]-1,3,5-triazin-2-yl]amino]benzonitrile] | – | 245 to 247 °C
